Assay results reported in article PMC9401498 (Clinical Cancer Research, 2021).

Legend:
[1] = system: tumor cell lines; conditions: preclinical, several tumor cell lines; cited from earlier work
[2] = system: glutamine; experiment: Plasma glutamine concentration; format: in vivo, human; conditions: cycle 1, day 15 relative to predose on cycle 1, day 1; P = 0.0073; n = 6
[3] = system: renal cell carcinoma (RCC); experiment: Antitumor activity by RECIST v1.1, RCC cohorts; format: in vivo, human
[4] = Plasma pharmacokinetics of telaglenastat; format: in vivo, human
[5] = All RCC (n = 28), number (percent) of efficacy evaluable patients

For `O=C(Cc1cccc(OC(F)(F)F)c1)Nc1ccc(CCCCc2nnc(NC(=O)Cc3ccccn3)s2)nn1` [telaglenastat, Telaglenastat], the antiproliferative activity [1] is given as “cytostatic and cytotoxic antiproliferative activity”, the “increase in plasma glutamine” value [2] is given as “approximately 150%” and the “Disease control rate (DCR)” value ([3]; 28 evaluable patients with RCC in both dose escalation and dose expansion, 14/28) is given as 50%. For the same compound, the “Best overall response: Partial response” value [3, 5] was 1 (3.6), the “Best overall response: Progressive disease” value [3, 5] was 14 (50.0) and the “Best overall response: Stable disease” value [3, 5] was 13 (46.4). For the same compound, the “reduction in target lesions” value ([3]; clear cell RCC patient with PR (800 mg BID)) was 32%, the “patients with RCC remaining on study for more than 10 months” value ([3]; in vivo) was “Four” and the time on study ([3]; one clear cell patient with RCC) was greater than 2.4 years. The overall response rate ([3]; renal cell carcinoma) was 5%, the Cmin ([4]; RCC patient with PR (800 mg BID)) was 1,490 ng/mL and the half-life ([4]; human, in vivo, 600 mg) was 3.73 h. For the same compound, the AUC ([4]; human, in vivo, 800 mg) was 19900 ng·h/mL, the AUC(0-t) ([4]; human, in vivo, 800 mg, AUC0–8h, steady state C1D15, 800 mg BID-fed (n = 10), mean (CV%)) was 9660 ng·h/mL and the Cmax ([4]; human, in vivo, 800 mg, C max, steady state C1D15, 800 mg BID-fed (n = 10), mean (CV%)) was 1770 ng/mL. The concentration at 15 day of cycle 1 ([4]; human, in vivo, 800 mg, C min, steady state C1D15, 800 mg BID-fed (n = 10), median (range)) was 443 ng/mL, the Cmax ([4]; human, in vivo, 800 mg, Cmax, RCC patient with PR (800 mg BID)) was 2960 ng/mL and the Tmax ([4]; human, in vivo, 800 mg, t max, steady state C1D15, 800 mg BID-fed (n = 10), (range)) was 4 h. For the same compound, the C min ([4]; steady state C1D15, 1,000 mg BID-fed (n = 4), median (range)) was 147 (73.2–221) ng/mL.
